Test results from ChEMBL document CHEMBL1201862, “PubChem BioAssay data set” (2004).
The source made the active and inactive calls.

Legend:
Aminopeptidase N = biological target: T1, Aminopeptidase N (Plasmodium falciparum FcB1/Columbia, UniProt O96935); experiment: P. falciparum M1AAP inhibitors, biochemical, fluorogenic H-Leu-NHMec substrate, 1536-well (AID 1445); parameters: species or system Plasmodium falciparum 3D7, 3D7
T1 sequence (O96935 whole entry): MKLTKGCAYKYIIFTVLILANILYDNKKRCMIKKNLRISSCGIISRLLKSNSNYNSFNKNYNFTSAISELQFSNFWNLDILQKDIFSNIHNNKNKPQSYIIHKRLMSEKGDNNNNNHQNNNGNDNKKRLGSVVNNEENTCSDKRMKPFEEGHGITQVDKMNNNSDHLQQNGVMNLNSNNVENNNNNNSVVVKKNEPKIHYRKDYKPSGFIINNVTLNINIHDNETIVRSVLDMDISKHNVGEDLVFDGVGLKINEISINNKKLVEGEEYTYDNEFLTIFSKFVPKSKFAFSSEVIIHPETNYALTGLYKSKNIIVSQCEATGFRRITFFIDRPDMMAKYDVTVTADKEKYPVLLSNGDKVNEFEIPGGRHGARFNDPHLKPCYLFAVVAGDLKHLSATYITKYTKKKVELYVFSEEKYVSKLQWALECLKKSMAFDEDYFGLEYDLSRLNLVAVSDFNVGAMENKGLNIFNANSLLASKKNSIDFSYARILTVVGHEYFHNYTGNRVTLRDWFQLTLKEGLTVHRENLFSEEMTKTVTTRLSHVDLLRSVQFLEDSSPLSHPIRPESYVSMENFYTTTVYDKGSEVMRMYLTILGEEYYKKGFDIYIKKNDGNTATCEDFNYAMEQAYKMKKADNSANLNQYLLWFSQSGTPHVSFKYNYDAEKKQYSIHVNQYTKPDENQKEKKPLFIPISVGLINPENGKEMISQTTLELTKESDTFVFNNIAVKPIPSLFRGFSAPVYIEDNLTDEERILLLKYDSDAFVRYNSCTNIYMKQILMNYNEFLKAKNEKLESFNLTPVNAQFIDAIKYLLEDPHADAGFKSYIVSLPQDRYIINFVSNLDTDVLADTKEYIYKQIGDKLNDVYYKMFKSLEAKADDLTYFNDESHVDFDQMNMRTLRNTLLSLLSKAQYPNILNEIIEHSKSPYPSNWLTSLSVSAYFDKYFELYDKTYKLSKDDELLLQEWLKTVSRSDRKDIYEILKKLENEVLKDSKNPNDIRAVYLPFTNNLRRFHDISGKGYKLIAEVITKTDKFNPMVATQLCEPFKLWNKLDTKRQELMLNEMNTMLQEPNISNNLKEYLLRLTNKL

[1] = biological target: Peroxisome proliferator-activated receptor gamma/Nuclear receptor coactivator 3 (Homo sapiens, UniProt P37231); experiment: TR-FRET dose response biochemical High Throughput Screening assay for agonists of the steroid receptor coactivator 3 (SRC-3) recruitment by the peroxisome proliferator-activated receptor gamma (PPAR gamma): non-selective agonists. [Related pubchem assays: 1301 (Confirmation screen.), 1048 (Primary screen.)]; format: functional
Sequence of Peroxisome proliferator-activated receptor gamma/Nuclear receptor coactivator 3 (P37231 whole entry): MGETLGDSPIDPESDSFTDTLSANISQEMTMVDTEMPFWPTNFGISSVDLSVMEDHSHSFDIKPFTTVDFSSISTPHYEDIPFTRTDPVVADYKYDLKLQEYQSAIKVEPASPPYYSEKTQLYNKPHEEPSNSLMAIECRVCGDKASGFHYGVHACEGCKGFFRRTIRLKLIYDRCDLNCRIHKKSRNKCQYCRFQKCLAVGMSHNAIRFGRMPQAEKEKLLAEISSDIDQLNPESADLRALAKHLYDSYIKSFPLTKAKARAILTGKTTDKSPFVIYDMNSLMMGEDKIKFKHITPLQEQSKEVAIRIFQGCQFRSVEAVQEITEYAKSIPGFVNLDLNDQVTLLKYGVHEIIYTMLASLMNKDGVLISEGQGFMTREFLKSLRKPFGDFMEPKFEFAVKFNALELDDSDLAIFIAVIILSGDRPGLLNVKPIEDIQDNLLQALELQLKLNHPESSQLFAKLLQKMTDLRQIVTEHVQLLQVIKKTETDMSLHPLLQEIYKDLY
Sequence of Peroxisome proliferator-activated receptor gamma/Nuclear receptor coactivator 3 (Q9Y6Q9 whole entry, further chain): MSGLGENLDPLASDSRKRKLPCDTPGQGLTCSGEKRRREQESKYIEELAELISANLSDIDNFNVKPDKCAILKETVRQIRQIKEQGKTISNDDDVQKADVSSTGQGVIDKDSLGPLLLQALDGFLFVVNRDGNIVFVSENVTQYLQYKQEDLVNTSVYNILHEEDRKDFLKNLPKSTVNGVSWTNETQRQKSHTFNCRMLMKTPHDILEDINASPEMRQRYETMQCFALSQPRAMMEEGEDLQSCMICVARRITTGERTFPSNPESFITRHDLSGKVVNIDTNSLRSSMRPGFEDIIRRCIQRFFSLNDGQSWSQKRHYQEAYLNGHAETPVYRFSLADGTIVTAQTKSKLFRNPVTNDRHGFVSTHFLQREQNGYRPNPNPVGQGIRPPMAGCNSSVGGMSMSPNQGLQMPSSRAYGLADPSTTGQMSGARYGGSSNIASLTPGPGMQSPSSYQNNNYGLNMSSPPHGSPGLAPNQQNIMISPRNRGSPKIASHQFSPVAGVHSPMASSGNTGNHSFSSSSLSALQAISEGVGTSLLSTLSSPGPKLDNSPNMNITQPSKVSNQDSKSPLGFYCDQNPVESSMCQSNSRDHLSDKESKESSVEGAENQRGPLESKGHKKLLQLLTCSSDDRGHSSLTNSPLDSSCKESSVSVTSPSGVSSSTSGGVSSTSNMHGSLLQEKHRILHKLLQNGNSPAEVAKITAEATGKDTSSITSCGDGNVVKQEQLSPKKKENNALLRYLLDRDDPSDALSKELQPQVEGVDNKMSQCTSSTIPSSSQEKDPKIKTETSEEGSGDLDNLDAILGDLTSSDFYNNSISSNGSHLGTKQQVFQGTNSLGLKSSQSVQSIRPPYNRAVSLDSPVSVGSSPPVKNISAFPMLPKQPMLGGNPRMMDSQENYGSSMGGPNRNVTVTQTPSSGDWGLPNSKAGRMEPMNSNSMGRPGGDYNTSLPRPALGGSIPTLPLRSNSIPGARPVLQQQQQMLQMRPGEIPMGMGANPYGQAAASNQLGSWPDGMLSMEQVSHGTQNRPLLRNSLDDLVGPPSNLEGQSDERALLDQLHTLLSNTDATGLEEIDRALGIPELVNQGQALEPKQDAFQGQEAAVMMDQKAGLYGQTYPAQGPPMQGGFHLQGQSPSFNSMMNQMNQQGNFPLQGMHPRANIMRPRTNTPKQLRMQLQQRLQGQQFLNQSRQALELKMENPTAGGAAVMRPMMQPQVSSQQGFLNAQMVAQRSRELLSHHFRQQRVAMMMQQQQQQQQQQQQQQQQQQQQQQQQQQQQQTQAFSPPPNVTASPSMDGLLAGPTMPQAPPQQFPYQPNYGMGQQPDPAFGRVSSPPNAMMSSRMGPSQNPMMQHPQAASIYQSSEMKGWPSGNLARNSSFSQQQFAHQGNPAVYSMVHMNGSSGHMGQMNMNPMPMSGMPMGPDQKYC

[2] = biological target: Peroxisome proliferator-activated receptor gamma/Nuclear receptor coactivator 2 (Homo sapiens, UniProt P37231); experiment: (§1) TR-FRET dose response biochemical High Throughput Screening assay for agonists of the steroid receptor coactivator 2 (SRC-2) recruitment by the peroxisome proliferator-activated receptor gamma (PPAR gamma): non-selective agonists. [Related pubchem assays: 1297, 1032 ]; format: functional
Sequence of Peroxisome proliferator-activated receptor gamma/Nuclear receptor coactivator 2 (P37231 whole entry): as the sequence (P37231 whole entry) above
Sequence of Peroxisome proliferator-activated receptor gamma/Nuclear receptor coactivator 2 (Q15596 whole entry, further chain): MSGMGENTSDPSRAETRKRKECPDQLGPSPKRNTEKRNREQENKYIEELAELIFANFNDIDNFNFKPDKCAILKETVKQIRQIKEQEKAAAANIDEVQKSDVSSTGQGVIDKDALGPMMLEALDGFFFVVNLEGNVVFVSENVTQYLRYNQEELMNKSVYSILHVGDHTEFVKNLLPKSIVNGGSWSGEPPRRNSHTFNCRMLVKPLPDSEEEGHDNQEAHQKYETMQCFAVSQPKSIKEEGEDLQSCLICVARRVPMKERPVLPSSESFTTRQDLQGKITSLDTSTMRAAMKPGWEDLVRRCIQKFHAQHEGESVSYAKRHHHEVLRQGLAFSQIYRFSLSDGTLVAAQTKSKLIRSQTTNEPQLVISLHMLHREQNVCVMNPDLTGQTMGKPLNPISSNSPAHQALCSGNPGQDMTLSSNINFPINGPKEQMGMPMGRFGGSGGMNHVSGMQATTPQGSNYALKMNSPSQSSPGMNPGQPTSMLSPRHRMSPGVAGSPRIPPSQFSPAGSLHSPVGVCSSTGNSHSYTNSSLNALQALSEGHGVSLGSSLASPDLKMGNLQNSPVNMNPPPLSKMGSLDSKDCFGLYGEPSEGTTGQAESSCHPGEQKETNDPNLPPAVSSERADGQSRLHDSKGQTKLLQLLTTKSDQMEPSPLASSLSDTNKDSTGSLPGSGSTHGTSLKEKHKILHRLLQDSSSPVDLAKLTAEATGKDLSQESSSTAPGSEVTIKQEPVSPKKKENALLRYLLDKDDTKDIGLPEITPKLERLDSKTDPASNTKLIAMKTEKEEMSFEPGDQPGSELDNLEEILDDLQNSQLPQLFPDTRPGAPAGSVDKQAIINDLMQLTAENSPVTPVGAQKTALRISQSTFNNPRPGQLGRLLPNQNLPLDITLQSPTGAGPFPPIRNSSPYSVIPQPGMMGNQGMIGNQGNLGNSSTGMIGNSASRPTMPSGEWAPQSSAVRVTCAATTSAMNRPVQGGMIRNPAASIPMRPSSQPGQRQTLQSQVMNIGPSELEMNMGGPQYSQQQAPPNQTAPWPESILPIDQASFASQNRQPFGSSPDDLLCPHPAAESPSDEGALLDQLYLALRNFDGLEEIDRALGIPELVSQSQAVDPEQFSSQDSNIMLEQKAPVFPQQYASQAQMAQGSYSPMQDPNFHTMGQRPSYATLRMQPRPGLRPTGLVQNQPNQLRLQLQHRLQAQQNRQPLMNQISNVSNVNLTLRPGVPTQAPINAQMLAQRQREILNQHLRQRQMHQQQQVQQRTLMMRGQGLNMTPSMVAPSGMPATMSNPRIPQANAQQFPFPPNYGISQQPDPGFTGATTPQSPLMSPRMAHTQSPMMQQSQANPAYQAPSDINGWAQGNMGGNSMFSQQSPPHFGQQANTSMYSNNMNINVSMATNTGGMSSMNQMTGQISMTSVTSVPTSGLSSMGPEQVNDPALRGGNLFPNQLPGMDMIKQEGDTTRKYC

[3] = biological target: Peroxisome proliferator-activated receptor gamma/Nuclear receptor coactivator 1 (Homo sapiens, UniProt P37231); experiment: as §1, with “1 (SRC-1)” for “2 (SRC-2)”, “assays (depositor defined):AID1300, AID1808, AID504735, AID631]” for “assays: 1297, 1032 ]”; format: protein assay
[4] = P. falciparum Dd2 growth inhibitors, dose response, SYBR Green, dry powder samples (AID 1159566); format: functional, cell-based;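 note: potency for growth inhibition with lower SYBR green DNA signal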
[5] = P. falciparum 3D7-ScDHODH growth inhibitors, dose response, SYBR Green, dry powder samples (AID 1159570); format: functional, cell-based;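 note: parasite growth measured after 72 hours of compound exposure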
[6] = HepG2 cell cytotoxicity, dose response, cytotoxicity control, cherry-picked samples (AID 1159577); format: functional, cell-based
[7] = P. falciparum ATP4 D1247Y mutant growth inhibitors, dose response, NITD609-resistant line, SYBR Green, dry powder (AID 1159571); format: functional, cell-based;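 note: parasites synchronized at ring stage by sorbitol before testing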
[8] = P. falciparum Dd2 growth inhibitors, dose response, SYBR Green, cherry-picked samples (AID 1159567); format: functional, cell-based
[9] = Luminescence Cell-Based Dose Retest to Confirm Inhibitors of Cancer Stem Cells. [Related pubchem assays (depositor defined):AID2717, AID2721]; format: functional; settings: Homo sapiens
Estrogen receptor beta = Estrogen receptor beta (Homo sapiens, UniProt Q92731);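 note: recombinant ER-beta bound to coactivator SRC1 peptide in presence of estradiol agonist; inhibitors block coactivator peptide binding and lower the FRET signal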
Sequence of Estrogen receptor beta (Q92731 whole entry): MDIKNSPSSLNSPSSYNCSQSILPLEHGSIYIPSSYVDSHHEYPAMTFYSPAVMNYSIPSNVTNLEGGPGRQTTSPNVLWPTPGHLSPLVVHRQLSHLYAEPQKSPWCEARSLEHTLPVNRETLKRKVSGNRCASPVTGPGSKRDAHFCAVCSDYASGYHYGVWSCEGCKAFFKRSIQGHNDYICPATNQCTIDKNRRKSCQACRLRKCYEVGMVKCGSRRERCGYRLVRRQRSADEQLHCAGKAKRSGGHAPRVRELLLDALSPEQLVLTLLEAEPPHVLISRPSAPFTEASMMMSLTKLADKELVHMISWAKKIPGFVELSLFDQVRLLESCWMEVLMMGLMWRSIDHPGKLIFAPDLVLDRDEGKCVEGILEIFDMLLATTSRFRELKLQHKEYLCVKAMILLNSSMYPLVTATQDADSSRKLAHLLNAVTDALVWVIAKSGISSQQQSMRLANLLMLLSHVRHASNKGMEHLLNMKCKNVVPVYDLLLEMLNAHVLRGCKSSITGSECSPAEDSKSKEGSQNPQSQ

[10] = microbe, parasite or virus in culture; format: functional; settings: Mycobacterium tuberculosis
[11] = A Cell Based Secondary Assay To Explore Cytotoxicity of Compounds that Sensitize Mycobacterium Tuberculosis to Beta-Lactam Antibiotics.; format: functional
[12] = cytotoxicity toward NIH3T3 fibroblasts, dose response, counter-screen, cell-based, ATP luminescence, mouse fibroblasts (AID 2010); format: functional;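 note: cells exposed to compound for about 90 hours before reading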
[13] = inhibitors of intracellular T. cruzi replication, confirmation, NIH3T3 host cells, beta-gal luminescence (AID 2044); format: functional, cell-based;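 note: intracellular parasites grown in NIH/3T3 mouse fibroblasts as host cells; luminescent beta-galactosidase reporter signal from transgenic T. cruzi replicating inside host cells; inhibitors lower the luminescence signal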
[14] = biological target: T2, Short transient receptor potential channel 4 (Mus musculus, UniProt Q9QUQ5); experiment: mouse TRPC4 channel inhibitors, dose response, cell-based, HEK293 TRPC4/mu-opioid, Fluo-4 calcium (AID 434942); format: functional;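 note: potency of inhibitors blocking the TRPC4 calcium response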
T2 sequence (Q9QUQ5 whole entry): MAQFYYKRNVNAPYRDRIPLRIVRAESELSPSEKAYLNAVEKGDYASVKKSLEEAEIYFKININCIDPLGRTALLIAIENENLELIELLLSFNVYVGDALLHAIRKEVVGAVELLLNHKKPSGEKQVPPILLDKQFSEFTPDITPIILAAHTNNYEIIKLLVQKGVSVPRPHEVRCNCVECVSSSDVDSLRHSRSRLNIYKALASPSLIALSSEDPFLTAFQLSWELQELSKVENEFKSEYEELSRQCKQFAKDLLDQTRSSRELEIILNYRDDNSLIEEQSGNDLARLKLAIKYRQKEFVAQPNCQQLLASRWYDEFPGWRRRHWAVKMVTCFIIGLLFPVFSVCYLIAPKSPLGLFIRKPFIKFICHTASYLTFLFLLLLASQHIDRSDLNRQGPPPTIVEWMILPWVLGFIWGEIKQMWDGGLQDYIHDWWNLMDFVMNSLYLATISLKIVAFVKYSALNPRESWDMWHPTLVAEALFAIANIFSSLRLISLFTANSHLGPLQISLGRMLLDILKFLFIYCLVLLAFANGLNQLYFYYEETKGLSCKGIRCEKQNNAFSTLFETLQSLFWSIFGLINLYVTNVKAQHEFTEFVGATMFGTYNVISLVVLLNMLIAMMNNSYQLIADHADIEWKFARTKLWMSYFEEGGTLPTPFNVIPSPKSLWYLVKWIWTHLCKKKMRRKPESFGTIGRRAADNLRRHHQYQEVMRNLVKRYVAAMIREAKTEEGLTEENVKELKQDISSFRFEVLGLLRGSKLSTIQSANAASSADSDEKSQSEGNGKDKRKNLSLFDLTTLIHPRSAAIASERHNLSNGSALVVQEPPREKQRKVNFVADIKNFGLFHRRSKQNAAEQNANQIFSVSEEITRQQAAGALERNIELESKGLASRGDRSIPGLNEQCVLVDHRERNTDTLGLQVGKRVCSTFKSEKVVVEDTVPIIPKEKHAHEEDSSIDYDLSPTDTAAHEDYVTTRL

Cytochrome P450 2C9 = Cytochrome P450 2C9 (Homo sapiens, UniProt P11712)
Cytochrome P450 1A2 = biological target: T3, Cytochrome P450 1A2 (Homo sapiens, UniProt P05177);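 note: PubChem cytochrome P450 panel assay, CYP1A2 panel member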
T3 sequence (P05177 whole entry): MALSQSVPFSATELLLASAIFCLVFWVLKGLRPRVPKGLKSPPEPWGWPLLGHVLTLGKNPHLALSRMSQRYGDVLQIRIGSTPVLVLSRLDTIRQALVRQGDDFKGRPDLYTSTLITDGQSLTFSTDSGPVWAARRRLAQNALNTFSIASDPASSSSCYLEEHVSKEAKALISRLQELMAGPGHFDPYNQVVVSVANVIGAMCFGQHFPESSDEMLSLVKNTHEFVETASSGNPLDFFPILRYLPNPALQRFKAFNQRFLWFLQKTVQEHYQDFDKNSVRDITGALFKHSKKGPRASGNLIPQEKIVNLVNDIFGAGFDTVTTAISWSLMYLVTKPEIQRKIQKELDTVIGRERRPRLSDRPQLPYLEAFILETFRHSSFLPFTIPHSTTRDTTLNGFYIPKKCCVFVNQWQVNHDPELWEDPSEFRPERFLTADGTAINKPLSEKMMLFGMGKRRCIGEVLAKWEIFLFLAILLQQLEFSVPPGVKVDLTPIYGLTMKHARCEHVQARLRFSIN

[15] = P. falciparum Dd2 growth inhibitors, dose response, SYBR Green, dry powder samples, set 9 (AID 1159568); format: functional, cell-based
Beta-galactosidase = Beta-galactosidase (Escherichia coli, UniProt Q8VNN2); experiment: beta-galactosidase enzyme inhibitors and activators, dose response, artefact control for CCR6 antagonist project, biochemical, E. coli enzyme, set 3 (AID 504712); format: functional
Genome polyprotein = Genome polyprotein (dengue virus type 2, UniProt P29990); experiment: Dengue-2 NS5 methyltransferase inhibitors, primary screen, biochemical, confirmation dose response (AID 588689); format: functional
Cytochrome P450 2D6 = Cytochrome P450 2D6 (Homo sapiens, UniProt P10635);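 note: CYP2D6 member of a cytochrome P450 panel assay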
Cytochrome P450 2C19 = Cytochrome P450 2C19 (Homo sapiens, UniProt P33261); experiment: Cytochrome panel assay with activity outcomes. Panel member name: p450-cyp2c19 Compounds with AC50 equal or less than 10 uM are considered active; format: functional; settings: read-out: AC50
Sequence of Cytochrome P450 2C19 (P33261 whole entry): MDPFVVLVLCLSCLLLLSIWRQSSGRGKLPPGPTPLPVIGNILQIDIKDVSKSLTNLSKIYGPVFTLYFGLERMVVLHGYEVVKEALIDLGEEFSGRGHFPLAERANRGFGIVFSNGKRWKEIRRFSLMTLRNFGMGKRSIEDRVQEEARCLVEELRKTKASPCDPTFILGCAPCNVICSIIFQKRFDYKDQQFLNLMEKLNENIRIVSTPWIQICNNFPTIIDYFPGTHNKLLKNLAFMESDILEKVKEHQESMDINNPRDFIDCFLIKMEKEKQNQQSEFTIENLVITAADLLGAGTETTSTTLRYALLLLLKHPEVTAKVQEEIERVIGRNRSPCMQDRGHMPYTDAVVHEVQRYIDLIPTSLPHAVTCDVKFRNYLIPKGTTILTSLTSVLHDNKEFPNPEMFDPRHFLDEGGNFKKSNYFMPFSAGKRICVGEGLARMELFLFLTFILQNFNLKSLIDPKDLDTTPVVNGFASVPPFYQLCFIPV

Cytochrome P450 3A4 = Cytochrome P450 3A4 (Homo sapiens, UniProt P08684);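 note: CYP3A4 tested as one member of a cytochrome P450 panel screen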
[16] = biological target: T2, Short transient receptor potential channel 4; experiment: mouse TRPC4 channel activators, dose response, cell-based, HEK293 TRPC4/mu-opioid, Fluo-4 calcium (AID 434937); format: functional

O=C(Cc1cc(=O)oc2cc(O)ccc12)NCC1CCC(C(=O)O)CC1 (configuration not stated)
IC50 (Aminopeptidase N): 65.9 µM (active)

Cc1ccc2nc(NC(=S)NC(=O)c3ccco3)sc2c1
EC50 [1]: > 79.4 µM (not active)
EC50 [2]: 51.8 µM (not active)
EC50 [3]: 43 µM (inactive)

Cc1nc(N2[C@H](CO)[C@H](c3ccccc3)[C@H]2CNCC2CCCC2)sc1C
AC50 [4]: 1.12 µM (active)
AC50 [5]: 1.4 µM (active)
AC50 [6]: > 39 µM (inactive)
AC50 [7]: 1.42 µM (active)
AC50 [8]: 2.26 µM (active)

CCCCOC(=O)c1c(C)oc2ccc(NS(=O)(=O)c3ccc4c5c(cccc35)C(=O)N4)cc12
AC50 [9]: 9.4 µM (active)
IC50 (Estrogen receptor beta): 13.5 µM (active)
CC50 [10]: > 40 µM (active)

CC1=NN(c2ccccc2)C(=O)C1/C=N/c1ccccc1O (configuration not stated)
CC50 [11]: > 40 µM (active)
IC50 (Aminopeptidase N): 12.8 µM (active)

CCCCC(CC)C(=O)Nc1ncc([N+](=O)[O-])s1 (configuration not stated)
EC50 [12]: > 60 µM (not active)
EC50 [13]: 1.29 µM (active)
EC50 [14]: 7.5 µM (active)

c1ccc(Cn2c(CN3CCCC3)nc3ccccc32)cc1
AC50 (Cytochrome P450 2C9): 35.5 µM (inconclusive)
AC50 (Cytochrome P450 1A2): 14.1 µM (inconclusive)
EC50 [14]: 2.11 µM (active)

CC(C)N(C[C@H]1N[C@H](CO)[C@@H]1c1ccc(C2=CCCCC2)cc1)C(=O)CN(C)C
AC50 [6]: 10.8 µM (active)
AC50 [8]: 1.34 µM (active)

CO[C@H]1CN(C)C(=O)c2cc(NC(=O)c3cccc(F)c3)ccc2OC[C@H](C)N(C)C[C@H]1C
AC50 [15]: 22.8 µM (active)

COc1ccccc1NC(=O)N1C[C@@H]2N[C@H](C1)[C@H]2c1ccc(/C=C/c2ccccc2)cc1
AC50 [8]: 3.04 µM (active)
AC50 [15]: 4.56 µM (active)

NC(=O)c1nsc(C(=O)N(Cc2ccccc2Cl)C(C(=O)NCC2CCCO2)c2ccc(O)cc2)c1N (configuration not stated)
EC50 [14]: 5.96 µM (active)

O=C1C=CC(=O)N1
IC50 (Beta-galactosidase): > 66.6 µM (inactive)

O=C1/C(=C/c2nc3ccccc3[nH]2)SC(=S)N1NS(=O)(=O)c1ccccc1
IC50 (Aminopeptidase N): 23.7 µM (active)
IC50 (Genome polyprotein): 54.7 µM (active)

Oc1c(/C=N/Cc2ccncc2)sc2ccccc12
IC50 (Beta-galactosidase): > 66.6 µM (inactive)

N#Cc1cccc(-c2ccc([C@@H]3[C@@H]4CN(Cc5ccccc5)C[C@H]3N4)cc2)c1
AC50 [6]: 15.4 µM (active)
AC50 [8]: 5.57 µM (active)

COc1ccc2cc(C#N)c(SCC(=O)NNC(=O)Cc3ccccc3)nc2c1
AC50 (Cytochrome P450 2D6): 2.51 µM (inconclusive)
AC50 (Cytochrome P450 2C19): 0.0398 µM (inconclusive)
AC50 (Cytochrome P450 3A4): 1.26 µM (inconclusive)
EC50 [1]: > 79.4 µM (not active)
EC50 [2]: 11.1 µM (not active)
EC50 [3]: 10.7 µM (inactive)

CCn1c(=O)cc(SCC(=O)NCc2ccc(C)cc2)c2ccccc21
EC50 [1]: > 79.4 µM (not active)
EC50 [2]: > 26.5 µM (not active)
EC50 [3]: > 79.4 µM (inactive)

COc1ccc(C(CNC(=O)Cc2ccc3ccccc3c2)N(C)C)cc1 (configuration not stated)
EC50 [16]: 0.668 µM (active)
EC50 [14]: 0.0533 µM (active)

COc1ccc(C(C(=O)NC2CCCC2)N(C(=O)c2ccco2)c2ccc3c(c2)OCO3)cc1OC (configuration not stated)
IC50 (Estrogen receptor beta): > 50 µM (not active)

O=C(NCc1cccc(F)c1)C1CCN(C(=O)c2sccc2-n2cccc2)CC1
IC50 (Aminopeptidase N): 100 µM (active)

O=C(Nc1ccc(Cl)cc1)N1C[C@@H]2[C@H](c3ccccc31)[C@@H](CO)N2CC1CCCCC1
AC50 [15]: 5.79 µM (active)

CC(C)Cn1c(-c2cccs2)nc2ccccc21
IC50 (Estrogen receptor beta): > 50 µM (not active)

O=C(NCc1cccs1)C1CCN(S(=O)(=O)c2ccc(Cl)cc2)CC1
IC50 (Aminopeptidase N): 89.3 µM (active)

O=C(CNS(=O)(=O)c1ccc2ccccc2c1)OCC(=O)c1ccc(Br)s1
EC50 [1]: 36.5 µM (not active)
EC50 [2]: 4.58 µM (active)
EC50 [3]: 8.72 µM (active)

O=C(Nc1ccc2c(c1)[C@@H]1C[C@@H](CC(=O)N3CCc4ccccc4C3)O[C@@H](CO)[C@@H]1O2)c1ccc2c(c1)OCO2
AC50 [15]: 13 µM (active)
